Data on 2 compounds can be found in patent publication US11917960B2, “Methods to improve genetic transformation of sorghum” (Commonwealth Scientific and Industrial Research Organisation, priority 2016, dated 2024).

Structures are written as SMILES. Marks after values point to notes of the source that are not given here.

Common to all, as to type: cell-based, Sorghum bicolor L
For data set [1], the system named is DEC tissues/somatic embryos. In words: Sensitivity of DEC tissues/somatic embryos to Geneticin. The following applies: for Green DEC tissue survival (%): CIM + 1 mg/l LA, 6 weeks culture. On the procedure:
The experiment was carried out using 6 weeks-old uniform, healthy green-coloured DEC tissues about 5 mm in size and which contained some somatic embryos, produced after culturing on CIM containing 1 mg/l LA. The Geneticin levels used were 0, 15, 25, 35 and 45 mg/L, respectively. Three replicates each of 15 green DEC tissue pieces per plate were used for each concentration of Geneticin tested. The tissues were cultured for 6 weeks, being subcultured every two weeks onto the same medium, including the same Geneticin concentrations.
After 6 weeks of culture, the number of green DEC tissues that had survived was counted.
DEC tissues (about 5 mm) began to display geneticin stress symptoms on selective callus induction media (CIM with geneticin) within 3 weeks of culture. […] Very few calli (2-6) survived with dead patches. On this basis, geneticin at a final concentration of 25 mg/i was used in the callus induction media for 3 cycles (2 weeks each) and then increased to 30 mg/i for one cycle in shoot induction media (Table 6). Different concentrations of geneticin in CIM and SIM was deemed optimal in preventing shoot regeneration from non-transformed callus.

Data set [2] has as its system immature embryos (IEs). In words: DEC tissue induction from immature embryos on CIM with or without LA. The following applies: for Green tissue induction frequency: CIM + 1 mg/l LA, 6 weeks culture, mean ± SD, frequency calculated as a percentage, in %. On the procedure: Plants of the grain sorghum of the inbred cultivar TX-430 (Miller 1984) were grown in a plant growth chamber (Conviron, PGC-20 flex) at 28±1° C. “day” temperature and 20±1° C. “night” temperature, with a. 16 hr photoperiod at a light intensity during the “day” of 900-1000 LUX. Panicles were covered with white translucent paper bags before flowering. Immature embryos were harvested from panicles 12-15 days after anthesis. Panicles were washed several times with water and developing seeds that were uniform in size were isolated and surface-sterilized using 20% commercial bleach mixed with 0.1% Tween-20 for 15-20 min. They were then washed with sterile distilled water 3 times each for 20 min, and blotted dry in a laminar flow hood. Immature embryos (IEs) ranging from 1.4 to 2.5 mm in length were aseptically isolated in the laminar flow hood and used as the starting tissue for preparation of green regenerative tissue.
The isolated IEs ranging from 1.4 to 2.5 mm in length were placed onto callus induction media (CIM) of various compositions with their scutellum facing upward. CIM modified to improve callus quality and induction frequency from immature embryos, as well as callus regeneration media, included α-Lipoic acid (1 to 5 mg/1), Melatonin (5 to 10 mg/l) and 2-Aminoidan-2-phosphonic acid HCl (1 to 2 mg/l) unless otherwise stated. For the development of green tissue, immature embryos were incubated under fluorescent light of approximately 45-50 μmol s^−1 m^−2 (16 h/day) in a tissue culture room at 24±2° C. After three days of culture, the root and shoot poles of the immature embryos were aseptically separated and re-inoculated on to the same media (CIM) and maintained under the same conditions as described above. They were subcultured every two weeks for 6 weeks by chopping the callus into 2-3 mm portions, re-inoculating on to the same media (CIM) and maintaining under the same conditions described above, after which time the tissue cultures were evaluated for callus quality, callus induction efficiency and transformation efficiency. Callus induction frequency was calculated as the number of calli obtained (˜5 mm) over total number of immature embryos inoculated, as a percentage.
Sets of IEs ranging from 1.4 to 2.5 mm in length, each set isolated from one panicle, were aseptically isolated and cultured on CIM medium as described in Example 1. Some sets were cultured with the addition of α-Lipoic acid (LA, 1 mg/I or 5 mg/), others without, in order to determine the effect of this agent.
After 6 weeks of culture including subculture every two weeks onto the same medium, DEC tissue induction frequency and quality were evaluated. […]

Data set [3] has as its system immature embryos (IEs). In words: DEC tissue yield on CIM with or without LA. The note with it: for DEC yield in number ~5 mm each: CIM + 1 mg/l LA, 45 IEs. An excerpt: After 4 to 12 weeks of culture, the number of DEC tissues obtained were counted. The number of DEC tissue pieces (˜5 mm) obtained at 12 weeks on CIM with LA was almost double when compared to using CIM without LA. Furthermore, the quality of the DEC tissues obtained on CIM with LA was improved compared to using the medium without LA.

The next data set concerns DEC tissue of sorghum. In words: Regeneration frequency and number of shoots per DEC tissue on SIM and SRM. The note with it: for Number of shoots/callus / Regeneration frequency (%): LA in SIM and SRM, mean ± SD. As for the experimental part: After six weeks on the CIM, some uniform green-coloured DEC tissue of about 4-7 mm diameter were transferred on to shoot induction medium (SIM) and cultured for another 2-3 weeks in order to begin organogenesis. Tissues which had induced shoot buds were then transferred to shoot regeneration medium (SRM) and again cultured for 2-3 weeks. Regenerability of DEC tissue of different ages (2-6 months from initiation) was also tested on SRM medium comprising different concentrations of BAP (0.5-1.0 mg/l) and TDZ (0.5-1.0 mg/l). The number of shoots were counted and the regeneration frequency (i.e. the number of shoots/DEC tissue) was calculated after 3 weeks culture on SRM (total of approximately 5 weeks culture inclusive of culture on SIM and SRM). Individual shoots approximately 2-3 cm in length were transferred to shoot out growth (SOG) medium and cultured for another 2-3 weeks. Well-developed shoots (4-5 cm in length), were carefully separated from the cluster and transferred to root induction medium (RIM) and cultured for 3-4 weeks. For shoot induction to complete plant regeneration, 50-60 μmol s^−1 m^−2 (16 h/day) fluorescent light was used in the tissue culture room at 24±2° C. Shoots (about 8 cm in length) with numerous (often 15-20) healthy looking roots were transferred to soil and grown to maturity in a PC2 glasshouse at […]. The optimized culture medium composition for the different stages of plant transformation from callus induction to plant regeneration from green tissue induced from immature embryos is presented in Table 1.
Uniform ready-to-use high quality green DEC tissues (5 mm) each with nodular structures induced on CIM medium with or without added LA were transferred to shoot induction medium (SIM) with and without LA and cultured for another 2-3 weeks. Tissues with induced shoot buds were then transferred to shoot regeneration medium (SRM) with or without added LA and again cultured for 2 weeks. Regenerability of green tissues of different ages (2-6 months from initiation) was tested on SRM medium containing different concentrations of BAP (0.5-1.0 mg/l) and TDZ (0.5-1.0 mg/l). Tissues including the shoot buds were again cultured on hormone free medium (SOG) with or without LA. The number of shoots was counted after 2 weeks of culture on SRM and the regeneration frequency (number of shoots/DEC tissue) calculated.

The mark [4] stands for this setting: after 8 weeks on CIM with G25 and 35 mg/l.

On to `CN[C@@H]1[C@@H](O)[C@@H](O[C@@H]2[C@@H](O)[C@H](O[C@H]3O[C@H]([C@@H](C)O)[C@@H](O)[C@H](O)[C@H]3N)[C@@H](N)C[C@H]2N)OC[C@]1(C)O` [Geneticin], for which the “Green DEC tissue survival (%)” value in data set [1] (Geneticin 15 mg/l) was 80 ± 1.0%; in data set [1] (Geneticin 25 mg/l), 4 ± 2.6%; in data set [1] (Geneticin 35 mg/l), 2 ± 0.5%; in data set [1] (Geneticin 45 mg/l), 0%. Besides, the Appearance of calli in data set [1] (setting [4]) is “most of the calli turned dark brown in colour with no signs of survival”. In addition, in data set [1] (setting [4]), the “Number of calli survived with dead patches” value was 2-6. Further, the “Time until DEC tissues began to display geneticin stress symptoms” value in data set [1] (selective callus induction media (CIM with geneticin)) is listed as at most 3 weeks.

On to `O=C(O)CCCCC1CCSS1` (stereo not drawn) [LA, α-Lipoic acid], for which the “DEC tissue induction at higher concentration of LA compared to 1 mg/ml” value with immature embryos (IEs) [2] (LA 5 mg/l in CIM) is reported as “no significant further improvement”. The entries for the “Green tissue induction frequency” value in the data set with immature embryos (IEs) [2] (immature embryo size 1.5-2 mm) and in the data set on immature embryos (IEs) [2] (immature embryo size >2 mm) were 79.0 ± 6.5 and 59.0 ± 5.5, respectively. Further, the “DEC tissue induction frequency compared to CIM without LA” value in the data set on immature embryos (IEs) [2] (small immature embryos (1.5-2 mm), significant at p<0.01) is recorded as “greater”. The “Number of DEC tissue pieces (~5 mm) compared to CIM without LA” value with immature embryos (IEs) [3] (12 weeks on CIM with LA) is listed as “almost double”. In addition, the “DEC yield in number ~5 mm each” value came out at 36 in the data set with immature embryos (IEs) [3] (culturing time 4 weeks); 90 in the data set with immature embryos (IEs) [3] (culturing time 6 weeks); 120 in the data set on immature embryos (IEs) [3] (culturing time 8 weeks); 218 in the data set with immature embryos (IEs) [3] (culturing time 10 weeks); 825 in the data set on immature embryos (IEs) [3] (culturing time 12 weeks). Also, the Number of shoots/callus in the data set on DEC tissue of sorghum (DEC tissue age 2 months) is reported as 40 ± 4.5^b; in the data set with DEC tissue of sorghum (DEC tissue age 4 months) it was 40 ± 1.5^d; in the data set with DEC tissue of sorghum (DEC tissue age 6 months), 33 ± 2.5^f. Moreover, the figures for the “Regeneration frequency (%)” value in the data set on DEC tissue of sorghum (DEC tissue age 2 months), in the data set on DEC tissue of sorghum (DEC tissue age 4 months) and in the data set with DEC tissue of sorghum (DEC tissue age 6 months) were 97.6 ± 2.5%, 97 ± 2.6 % and 94.3 ± 2.0 %, respectively. Also, the “Regeneration frequency and number of shoots/DEC tissue for different ages of DEC tissue” value in the data set on DEC tissue of sorghum (LA included in both SIM and SRM, versus without LA) is on record as “did not decline as much”.
